Results taken from article PMC5371824, “Phosphatidylinositol (4,5)-bisphosphate dynamically regulates the K2P background K^+ channel TASK-2” (Scientific Reports, 2017).
Entries after “also recorded” stand apart in the source; their conditions may differ. Where two headings read alike, the source gives them in different places.

Legend:
TASK-2 [1] = target: T1, TASK-2 (Mus musculus, UniProt F6V9U5); assay: Excised inside-out patch recording from HEK-293 cells over-expressing TASK-2; type: biochemical; conditions: for Inhibition of TASK-2 activity by polycation PI scavengers: in the presence of intracellular ATP
T1 construct: expressed in transfected cells; host or cells: HEK-293
T1 sequence (F6V9U5 1-502): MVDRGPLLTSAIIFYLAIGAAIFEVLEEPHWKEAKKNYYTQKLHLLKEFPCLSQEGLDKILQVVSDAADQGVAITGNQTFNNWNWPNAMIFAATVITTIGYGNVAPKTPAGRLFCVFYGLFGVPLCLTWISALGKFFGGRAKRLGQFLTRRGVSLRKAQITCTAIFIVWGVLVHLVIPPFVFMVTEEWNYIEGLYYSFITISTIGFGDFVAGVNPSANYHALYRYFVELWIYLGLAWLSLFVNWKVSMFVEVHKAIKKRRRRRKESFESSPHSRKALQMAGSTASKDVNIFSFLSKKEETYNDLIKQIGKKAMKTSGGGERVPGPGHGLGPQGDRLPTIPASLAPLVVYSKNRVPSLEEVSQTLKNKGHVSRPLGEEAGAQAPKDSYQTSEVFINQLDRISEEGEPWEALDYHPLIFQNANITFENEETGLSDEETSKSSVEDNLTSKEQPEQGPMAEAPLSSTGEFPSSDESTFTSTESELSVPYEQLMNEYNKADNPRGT

TASK-2-K257A-K258A = assay: Whole-cell current in HEK-293 cells co-transfected with AT1 and TASK-2-K257A-K258A; type: cell-based, Mus musculus; conditions: 1 μM, pulses to 0 mV from -75 mV, Gβγ-insensitive mutant
Procedure: Figure 3 Gq protein coupled receptor inhibition of TASK-2 and minor effect of diacylglycerol. (A) Effect of activation of the angiotensin II receptor AT1 on TASK-2-mediated currents. HEK-293 cells were co-transfected with AT1 and TASK-2, or the TASK-2-K257A-K258A mutant. Current was monitored by brief pulses to 0 mV from a holding potential of −75 mV. Angiotensin II at a concentration of 1 μM was added during the indicated time. Results are means ± SEM of 6 experiments for TASK-2 and 4 experiments for TASK-2-K257A-K258A. (B) Effect of a diacylglycerol analogue assayed on TASK-2- and TASK-3-expressing cells. Current was monitored by brief pulses to 0 mV from a holding potential of −75 mV. The box labelled DAG indicates the addition of diacylglycerol short-chain analogue 1,2-dioctanoyl-sn-glycerol at 100 nM. Results are means ± SEM of 5 experiments for TASK-2 and 8 experiments for TASK-3.
Mus musculus TASK-2 (GenBank accession No. AF319542) plasmid was that obtained from mouse kidney. The cDNAs was subcloned into the pCR3.1 vector. […]
Transiently transfected HEK-293 cells in 35 mm Petri dishes were transferred to the stage of an inverted microscope for study. […] All our whole-cell experiments keep both intra- and extracellular chloride at 10 mM and although currents were measured at several potentials, data mostly reported are those obtained at 0 mV. […]

[2] = test system: TASK-2 expressed with angiotensin II AT1 receptors; assay: Whole-cell current in HEK-293 cells co-transfected with AT1 and TASK-2; type: cell-based, Mus musculus; conditions: 1 μM, pulses to 0 mV from -75 mV
Procedure: Transiently transfected HEK-293 cells in 35 mm Petri dishes were transferred to the stage of an inverted microscope for study. There they were continuously superfused with a bathing solution containing (in mM): 67.5 Na2SO4, 4 KCl, 1 K gluconate, 2 CaCl2, 1 MgCl2, 105 sucrose, and 10 Hepes/Tris (pH 7.5) (standard solution). […] All our whole-cell experiments keep both intra- and extracellular chloride at 10 mM and although currents were measured at several potentials, data mostly reported are those obtained at 0 mV. […]

Kir4.1/Kir5.1 = test system: Kir4.1/Kir5.1; parameters: method as in PMID 18690035; conditions: read-out: neomycin IC50; cited from earlier work
TASK-2 [3] = target: T1, TASK-2; assay: Whole-cell patch-clamp of HEK-293 cells expressing TASK-2; type: cell-based; conditions: whole-cell, 1 mM intracellular ATP, 0 mV
Procedure: (§1) Mus musculus TASK-2 (GenBank accession No. AF319542) plasmid was that obtained from mouse kidney. The cDNAs was subcloned into the pCR3.1 vector. Mutations were made by site-directed mutagenesis into the pCR3.1 vector as previously described[69] and confirmed by sequencing. HEK-293 cells were cultured in Dulbecco’s modified Eagle’s medium (DMEM) and F12 Ham’s medium at a 1:1 ratio and supplemented with 10% fetal calf serum at 37 °C in 5% CO2. For electrophysiological experiments, transient transfections were performed by electroporation, using CD8 cotransfection to identify effectively transfected cells. […] Experiments were performed 4–8 h after electroporation. In experiments with the voltage-sensitive phosphatase TASK-2 or its mutants were co-electroporated with a pCR3.1-DrVSP-IRES-CD8 vector.
Transiently transfected HEK-293 cells in 35 mm Petri dishes were transferred to the stage of an inverted microscope for study. There they were continuously superfused with a bathing solution containing (in mM): 67.5 Na2SO4, 4 KCl, 1 K gluconate, 2 CaCl2, 1 MgCl2, 105 sucrose, and 10 Hepes/Tris (pH 7.5) (standard solution). A high K^+ solution was obtained by equimolar replacement of Na^+ by K^+. The pipette solution contained (mM) 8 KCl, 132 potassium gluconate, 1 MgCl2, 10 EGTA, 1 Na3ATP, 0.1 GTP, 10 HEPES/Tris, pH 7.4. Standard whole-cell, patch-clamp recordings were performed as described elsewhere. All our whole-cell experiments keep both intra- and extracellular chloride at 10 mM and although currents were measured at several potentials, data mostly reported are those obtained at 0 mV. Potentials were corrected for liquid junction shifts. Acquisition and analysis was done with Clampfit 9.0 (Axon Instruments, Foster City, CA, USA). Further data analysis was done using the curve fitting features of SigmaPlot v. 12 (Systat Software Inc., San Jose, CA, USA).

TASK-2-R438C = assay: Excised inside-out patch recording, TASK-2-R438C mutant; type: biochemical, Mus musculus; parameters: key to Neomycin inhibition: ✓ under Neomycin inhibition indicates a significantly lower IC50 for inhibition by neomycin compared to control; — in all cases stands for no significant effect
Procedure: as §1
Recordings in the inside-out isolated patch configuration were performed in the gap-free mode at −60 mV. The inside aspect of the patch was bathed with a solution containing in mM: 10 KCl, 10 Glucose, 1 MgCl2, 10 EGTA, 1 Na3ATP, 0.1 GTP, 6.8 g/100 ml Sucrose, 10 Hepes/Tris, pH 7.4. The pipette contained in mM: 140 KCl, 10 Glucose, 6.8 g/100 ml Sucrose, 10 Hepes/Tris pH 7.4. For isolated patches, borosilicate capillaries (Harvard Apparatus GC150F-10 1.5 ODx0.86 ID) were fire polished to 4–5 MΩ and covered in beeswax. Acquisition was at 10 kHz with filter at 3 kHz (4-pole Bessel) and analysis was done with Clampfit 9.0 (Axon Instruments, Foster City, CA, USA). Traces shown are prints from crude Clampfit screen shots and quantification was done using the average currents were calculated at intervals using Clampfit after baseline adjustment.
Fig. S7. Concentration ependence for the inhibition of TASK-2 mutant R438C by
intracellular neomycin. Recording were obtained from excised inside-out patches of
membrane taken from a HEK-293 cells over-expressing TASK-2-R438C. The patches were
held at -60 mV in the presence of 1 mM intracellular ATP. Neomycin was increased
stepwise from 5 to 500 µM in the solution bathing the intracellular aspect of the membrane. […]

CCCCCCCC(=O)OC[C@H](COP(=O)(O)O[C@H]1[C@H](O)[C@@H](O)[C@H](OP(=O)(O)O)[C@@H](O)[C@H]1O)OC(=O)CCCCCCC [PI(4)P, phosphatidylinositol 4-monophosphate diC8]
Effect of readmitted ATP relative to the maximal effect elicited by the PIP (TASK-2 [1]; 1 mM ATP added after PIP, inside-out patches, Fig. S3): 5.6 fold | Stimulating effect on TASK-2-mediated currents after run-down (TASK-2 [1]; diC8 PIP added to inside-out excised patches, absence of ATP): quite small; also recorded: rather weak | Maximal fold effect on TASK-2 current (normalised to current in absence of PIP) (TASK-2 [1]; diC8 PIP, inside-out patch, -60 mV, absence of ATP, from fits, means ± SEM): 1.4 ± 0.4 fold | EC50 (TASK-2 [1]; diC8 PIP, inside-out patch, -60 mV, absence of ATP, from fits, means ± SEM, read-out: K0.5 (EC50) for activation of TASK-2 current): 50.6 ± 1.3 µM | Hill coefficient nH of dose response curve (TASK-2 [1]; diC8 PIP, inside-out patch, absence of ATP): 2

CCCCC[N+](CCCCC)(CCCCC)CCCCC [TPeA, tetrapentyl ammonium]
IC50 (TASK-2 [1]): ~2 µM

angiotensin II (DRVYIHPF; Angiotensin-2; UniProt P01019 25-32, looked up) [agonist of the Gq-coupled angiotensin II AT1 receptor]
Effect on TASK-2-K257A-K258A current via AT1, compared with TASK-2 (TASK-2-K257A-K258A): not significantly different | Effect on TASK-2-mediated current via AT1 receptor [2]: markedly inhibited

neomycin
IC50 (Kir4.1/Kir5.1): 110 µM | Inhibition of TASK-2 activity by intracellular neomycin (TASK-2 [3]; 100 μM in pipette): intermediate effect | Inhibition of TASK-2 activity by intracellular neomycin (TASK-2 [3]; 200 μM in pipette): near maximum effect | Inhibition of TASK-2 activity in excised inside-out patches (TASK-2 [1]; 300 μM, -60 mV, 1 mM intracellular ATP): strongly inhibited | IC50 (TASK-2 [1]; WT TASK-2, inside-out patch, -60 mV, 1 mM intracellular ATP, neomycin 5 to 500 μM intracellular, mean ± SEM, n = 4, read-out: IC50 for neomycin inhibition of TASK-2 current): ~20 µM | IC50 (TASK-2 [1]; WT TASK-2, inside-out patch, graded intracellular neomycin, mean ± SEM, four experiments, unit inferred, read-out: IC50 for neomycin inhibition of TASK-2 current): 23.4 ± 2.7 µM | Inhibition of TASK-2 activity by polycation PI scavengers (TASK-2 [1]): inhibit TASK-2 activity | IC50 (TASK-2-R438C; inside-out patch, -60 mV, 1 mM intracellular ATP, neomycin 5 to 500 µM, mean ± SEM, n=4, read-out: IC50 for neomycin inhibition of TASK-2-R438C current): 8.9 ± 1.5 µM | Neomycin inhibition (TASK-2-R438C; mutation R438C, IC50 compared to WT TASK-2): ✓

poly-lysine
Inhibition of TASK-2 activity by polycation PI scavengers (TASK-2 [1]): inhibit TASK-2 activity
